The subject of assay [1] is pSer473 Akt in A2780 cells. Briefly: pSer473 Akt assay to monitor PI3K pathway in A2780 cells (Biological Method 2, MSD). It counts as cell-based. The conditions noted are these: Homo sapiens, inhibition of Akt phosphorylation. In outline:
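A2780 ovarian cancer cells in DMEM/10% FBS were treated with compound for 1 h at 37 °C, then lysed. pSer473-Akt and total Akt were measured by MSD electrochemiluminescence immunoassay. The pSer473/total Akt ratio gave % inhibition versus DMSO, from which EC50 was derived.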

The test system of assay [2] is A2780 ovarian cancer cells. Briefly: Cellular proliferation in A2780 cells, Cell Titer Glo (Biological Method 4). It counts as cell-based. The conditions noted are these: Homo sapiens. The gist of the method: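 Viability after 72 h compound exposure (37 °C, 5% CO2) was read by Cell Titer Glo and an EC50 derived, each condition in duplicate. A2780 ovarian cells had been plated at 1,000 per well in DMEM/10% FBS at least 2 h beforehand.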
On the technique in general: In ATP-based viability assays light output follows the ATP content of the culture.

Assay [3] deals with Akt^Ser473 phosphorylation in A2780 xenograft tumors. Briefly: In vivo target modulation (PK/PD) in A2780 ovarian cancer xenograft tumors (Biological Method 3). Also noted: species or system nu/nu mice. The conditions noted are these: for inhibition at 100 mg/kg: 100 mg/kg single oral dose; for inhibition at 100 mg/kg / inhibition at 60 mg/kg: A2780 xenograft tumors, read-out: Modulation of Akt^Ser473 phosphorylation (percentage inhibition compared to vehicle); for inhibition at 60 mg/kg: 60 mg/kg single oral dose. An excerpt:
(§1) A2780 ovarian cancer cells obtained from George Coukos (Fox Chase Cancer Center, University of Pennsylvania, Philadelphia, Pa.) were maintained in DMEM (Invitrogen, Inc.) supplemented with 10% heat-inactivated fetal bovine serum with 1% glutamine. Cells were propagated as recommended by the Dr. Coukos and colleagues. Female nu/nu mice (8-12 weeks old, 20-25 g, Charles River) were used for all in vivo pharmacology studies. The mice were housed and maintained in accordance with state and federal guidelines for the humane treatment and care of laboratory animals and received food and water ad libitum. Cancer cells were harvested from mid-log phase cultures using trypsin-EDTA (Invitrogen, Inc.). Five million cells were subcutaneously injected into the right flank of each mouse. Compound treatment was initiated when tumor size reached to 300-400 mm^3 for PK/PD studies and 200-300 mm^3 for efficacy studies. All compound treatment was administrated orally. Tumor volumes were determined by using StudyDirector software.
For PK/PD dose-dependent studies, tumor-bearing mice were given a single oral dose of compound at different concentrations (10, 30, 60 and 100 mg/kg or vehicle) and tumors were resected at 10 hr or 24 hr after dosing. Blood samples were taken by cardiac puncture using a syringe primed with heparin sulfate. Resected tumors were snap frozen on dry ice and pulverized using a liquid nitrogen-cooled cryomortar and pestle, and lysed in cold cell extraction buffer (Biosource) containing protease inhibitor tablet (Complete; EDTA-free, Amersham). Supernatants were taken after centrifugation of tumor lysates at 300×g for 10 min at 4° C. and the protein concentration in each supernatant was determined by BCA (BioRad). An equal amount of protein from each tumor lysate was loaded onto 10% Tris-glycine gels (Invitrogen), for sodiumdoceylsulfate-polyacrylamide gel electrophoresis (SDS-PAGE) after which proteins were transferred from the gel onto PVDF membrane. Membranes were probed with antibodies that recognize phosphoAkt^Ser473 or phosphoAkt^Thr308 (Cell Signaling) followed by secondary goat anti-rabbit IgG conjugated to HRP(Amersham). Positive bands were visualized by enhanced chemiluminescence with X-ray film. Similar procedures were used to determine total AKT in the same tumor lysates to serve as normalization for total protein in each determination. The density of the positive band on the X-ray film was scanned and the target modulation for each compound was expressed as percentage inhibition by each compound compared to vehicle treatment.
(§2) For efficacy studies, A2780 cancer cells (5×10^6 in 100 μl of DMEM culture medium) were injected subcutaneously into the right flank of each nu/nu mouse. […] Tumor growth and animal body weight was measured twice weekly with daily clinical observation to monitor potential toxicities related to the treatment. […] Activation of the PI3K signaling pathway results in the phosphorylation of the downstream signaling molecule Akt at Ser^473 and/or Thr^308. Compound modulation of Akt^Ser473 phosphorylation was examined in A2780 xenograft tumors at time points ranging from 30 min to 36 hr after a single compound dose at 60 or 100 mg/kg.

The next assay relates to A2780 tumor xenograft. The assay can be described thus: Efficacy study in A2780 ovarian cancer xenograft model (Biological Method 3). It counts as in vivo, nu/nu mice.
Source text: as §1, §2

The next assay addresses PI3 kinase alpha (Homo sapiens, UniProt P42336). The assay can be described thus: PI3K ATP depletion assay (Biological Method 1, Assay 3; KinaseGlo luminescence). Format: biochemical. The conditions noted are these: ATP depletion assay, read-out: PI3 Kinase Alpha, IC50. In outline: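 Compound in DMSO was mixed with 10 nM PI3 kinase and 5 μg/mL phosphatidylinositol, and the reaction was started with 2 μM ATP. It ran to about 50% ATP depletion and was stopped with KinaseGlo.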
A general note: In Kinase-Glo more light means more ATP remaining.

The mark [4] stands for this setting: 60 mg/kg oral daily, A2780 model.
Where [5] appears, read: ovarian cancer cell line A2780, Biological Method 4.

The term EC50 denotes the midpoint of the concentration-response curve. Read a low EC50 as an effect from little substance. What is called inhibition is how much of the control response was suppressed. As a reminder, the IC50 is the concentration that gives 50% inhibition.

Read-outs that look alike come from different tables or passages of the source. Some results are limits rather than exact numbers.

Chain of PI3 kinase alpha (P42336 whole entry): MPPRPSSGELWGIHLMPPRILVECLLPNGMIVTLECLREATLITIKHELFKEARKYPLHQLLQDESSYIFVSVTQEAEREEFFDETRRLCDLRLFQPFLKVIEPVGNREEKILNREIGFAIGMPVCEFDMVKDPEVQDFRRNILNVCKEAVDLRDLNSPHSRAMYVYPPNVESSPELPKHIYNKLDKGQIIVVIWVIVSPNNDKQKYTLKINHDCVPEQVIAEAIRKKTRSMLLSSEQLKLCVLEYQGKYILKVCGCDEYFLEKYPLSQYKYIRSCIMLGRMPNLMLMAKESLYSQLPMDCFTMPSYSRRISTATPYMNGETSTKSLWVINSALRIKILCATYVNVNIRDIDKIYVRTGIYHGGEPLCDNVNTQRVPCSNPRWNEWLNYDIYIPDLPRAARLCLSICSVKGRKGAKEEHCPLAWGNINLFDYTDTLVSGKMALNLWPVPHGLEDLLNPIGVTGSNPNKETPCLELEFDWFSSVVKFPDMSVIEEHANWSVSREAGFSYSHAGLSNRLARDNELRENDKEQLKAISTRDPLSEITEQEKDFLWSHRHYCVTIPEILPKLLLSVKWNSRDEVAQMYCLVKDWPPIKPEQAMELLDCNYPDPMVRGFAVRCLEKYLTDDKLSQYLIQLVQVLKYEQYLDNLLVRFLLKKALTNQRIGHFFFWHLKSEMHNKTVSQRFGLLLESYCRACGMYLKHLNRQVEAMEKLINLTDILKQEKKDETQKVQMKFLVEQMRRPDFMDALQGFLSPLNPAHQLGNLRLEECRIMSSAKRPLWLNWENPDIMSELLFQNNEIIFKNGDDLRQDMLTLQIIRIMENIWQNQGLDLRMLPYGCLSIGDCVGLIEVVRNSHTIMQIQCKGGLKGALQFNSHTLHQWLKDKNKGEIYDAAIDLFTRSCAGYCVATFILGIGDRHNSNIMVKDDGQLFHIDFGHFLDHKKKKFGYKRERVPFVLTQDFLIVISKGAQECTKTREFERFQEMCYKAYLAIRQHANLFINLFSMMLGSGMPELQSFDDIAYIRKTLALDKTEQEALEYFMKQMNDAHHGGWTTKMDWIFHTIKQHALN
Chain of PI3 kinase alpha (P27986 whole entry partner): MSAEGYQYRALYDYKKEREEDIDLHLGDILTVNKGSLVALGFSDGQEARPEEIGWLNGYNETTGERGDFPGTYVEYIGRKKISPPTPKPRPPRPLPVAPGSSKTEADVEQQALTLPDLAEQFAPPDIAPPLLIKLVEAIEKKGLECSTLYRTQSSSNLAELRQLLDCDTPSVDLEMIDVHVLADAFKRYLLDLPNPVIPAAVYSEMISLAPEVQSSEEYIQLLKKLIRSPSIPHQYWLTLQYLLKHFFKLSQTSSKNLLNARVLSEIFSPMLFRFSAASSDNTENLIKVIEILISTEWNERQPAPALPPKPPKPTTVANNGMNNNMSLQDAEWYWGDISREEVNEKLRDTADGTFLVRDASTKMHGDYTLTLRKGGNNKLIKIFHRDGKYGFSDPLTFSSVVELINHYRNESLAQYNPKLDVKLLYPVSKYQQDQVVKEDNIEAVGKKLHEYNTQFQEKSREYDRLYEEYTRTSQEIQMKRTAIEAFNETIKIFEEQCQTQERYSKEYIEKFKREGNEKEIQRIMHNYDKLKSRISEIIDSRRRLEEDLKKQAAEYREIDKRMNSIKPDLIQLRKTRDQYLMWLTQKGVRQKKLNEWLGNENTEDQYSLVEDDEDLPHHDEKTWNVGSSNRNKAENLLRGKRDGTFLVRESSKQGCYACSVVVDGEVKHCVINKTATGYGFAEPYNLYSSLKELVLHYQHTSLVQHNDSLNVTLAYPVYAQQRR

As for `COc1ccc(Nc2cc(-c3cnc(N)nc3)nc(N3CCOCC3)n2)cn1` [Compound 91], the EC50 in assay [1] (A2780 cells) and in assay [2] (ovarian cancer cell line A2780) was less than 1000 nM throughout. Moreover, the “Duration of target modulation (50% inhibition)” value in assay [3] (60 mg/kg, A2780 tumors) is 8 h. In assay [3] (Mus musculus, 8 hr), the inhibition at 100 mg/kg was more than 50%. The Tumor growth inhibition result is given as “no inhibitory activity” in the assay on A2780 tumor xenograft (10 mg/kg oral twice daily, A2780 tumors (FIG. 1)) and 50% in the assay with A2780 tumor xenograft (60 mg/kg oral twice daily, A2780 tumors (FIG. 1)).

In the case of `Nc1cc(C(F)(F)F)c(-c2cc(N3CCOCC3)nc(N3CCOCC3)n2)cn1` [Compound 10], the EC50 in assay [1] (A2780 cells) and in assay [2] (ovarian cancer cell line A2780) was less than 1000 nM in each case. The inhibition at 30 mg/kg in assay [3] (Mus musculus, A2780, 30 mg/kg oral b.i.d., read-out: Target inhibition in A2780 tumors, sustained over the whole dosing period) was less than 75%. In addition, the inhibition at 60 mg/kg in assay [3] (Mus musculus, 10 hr) was more than 75%. For the same molecule, the inhibition at 100 mg/kg in assay [3] (Mus musculus, 10 hr) was more than 75%. The Antitumor activity result in the assay on A2780 tumor xenograft (30 mg/kg oral b.i.d., A2780 model (FIG. 5)) is reported as “significant antitumor activity”. The Tumor growth inhibition in the assay with A2780 tumor xenograft (30 mg/kg oral daily, A2780 model) is listed as 40%; in the assay with A2780 tumor xenograft (setting [4]) it was 70%; in the assay on A2780 tumor xenograft (100 mg/kg oral daily, A2780 model (FIG. 2)), “tumor growth stasis”.

On to `Nc1ncc(-c2cc(OC3CCOCC3)nc(N3CCOCC3)n2)c(N)n1` [Compound 84], for which the IC50 on PI3 kinase alpha was less than 1000 nM. Moreover, the EC50 in assay [1] (A2780 cells) and in assay [2] (ovarian cancer cell line A2780) was less than 1000 nM in each case. In addition, the inhibition at 60 mg/kg in assay [3] (Mus musculus, 10 hr) fell in the range of 50 to 75%. This molecule yielded a Tumor growth inhibition with A2780 tumor xenograft (setting [4]) of less than 50%.

`Nc1ccc(-c2cc(Nc3cnc4ccccc4c3)nc(N3CCOCC3)n2)cn1` [Compound 183]: the EC50 in assay [1] (A2780 cells) and in assay [2] (ovarian cancer cell line A2780) was less than 1000 nM throughout. For the same molecule, in assay [3] (Mus musculus, 8 hr), the inhibition at 100 mg/kg is 50 to 75%.

As to `Cc1c(Nc2cnc3ccccc3c2)nc(N2CCOCC2)nc1-c1cnc(N)nc1` [Compound 103], at PI3 kinase alpha, the IC50 was less than 1000 nM. Also, the EC50 in assay [1] (A2780 cells) and in assay [2] (ovarian cancer cell line A2780) was less than 1000 nM throughout. For the same molecule, the inhibition at 100 mg/kg in assay [3] (Mus musculus, 8 hr) is less than 50%.

As for `Nc1ncc(-c2cc(OC3CCOCC3)nc(N3CCOCC3)n2)c(C(F)(F)F)n1` [Compound 66], the half-inhibitory concentration (IC50) on PI3 kinase alpha is less than 1000 nM. Also, the figures for the EC50 in assay [1] (A2780 cells) and in assay [2] (ovarian cancer cell line A2780) were less than 1000 nM and less than 10000 nM, respectively. For the same molecule, in assay [3] (Mus musculus, 10 hr), the inhibition at 60 mg/kg is less than 50%.

Take `CS(=O)(=O)c1cccc(-c2cc(-c3cnc(N)cc3C(F)(F)F)nc(N3CCOCC3)n2)c1` [Compound 95]: the IC50 on PI3 kinase alpha was less than 1000 nM. In addition, the EC50 in assay [1] (A2780 cells) and in assay [2] (ovarian cancer cell line A2780) was less than 1000 nM in each case.

Consider `Nc1ncc(-c2cc(NC(=O)c3cccnc3)nc(N3CCOCC3)n2)cn1` [Compound 189], for which the IC50 on PI3 kinase alpha was less than 1000 nM. Also, the values for the EC50 in assay [1] (A2780 cells) and in assay [2] (ovarian cancer cell line A2780) were less than 1000 nM and less than 10000 nM, respectively.

For the molecule `Nc1ncc(-c2cc(Nc3ccncc3)nc(N3CCOCC3)n2)c(C(F)(F)F)n1` [Compound 33], the IC50 at PI3 kinase alpha is less than 1000 nM. Besides, the EC50 in assay [1] (A2780 cells) and in assay [2] (ovarian cancer cell line A2780) was less than 1000 nM in each case.

Consider `Cc1c(Nc2ccc(OC(CO)CO)nc2)nc(N2CCOCC2)nc1-c1cnc(N)nc1` [Compound 212], for which the IC50 at PI3 kinase alpha (Biological Method 1) was less than 1000 nM. In addition, the EC50 is less than 10000 nM in assay [1] (A2780, Biological Method 2) and less than 25000 nM in assay [2] (setting [5]).

For `CC(C)N1CCC(Oc2ccc(Nc3cc(-c4cnc(N)nc4C(F)(F)F)nc(N4CCOCC4)n3)cn2)CC1` [Compound 41], the IC50 at PI3 kinase alpha was less than 1000 nM. In addition, the EC50 in assay [1] (A2780 cells) and in assay [2] (ovarian cancer cell line A2780) was less than 1000 nM throughout.

Consider `COc1ccc2ncc(Nc3cc(-c4cnc(N)nc4)nc(N4CCOCC4)n3)cc2c1` [Compound 206], for which the concentration for half-maximal inhibition (IC50) on PI3 kinase alpha (Biological Method 1) is less than 1000 nM. The EC50 in assay [1] (A2780, Biological Method 2) was less than 1000 nM; in assay [2] (setting [5]) it was less than 1000 nM.

For the molecule `Nc1cc(C(F)(F)F)c(-c2cc(N3CCOc4ccccc43)nc(N3CCOCC3)n2)cn1` [Compound 210], the IC50 at PI3 kinase alpha (Biological Method 1) was less than 1000 nM. Moreover, the EC50 was less than 10000 nM in assay [1] (A2780, Biological Method 2) and less than 10000 nM in assay [2] (setting [5]).

`COC(=O)N1CCC(Oc2cc(-c3cnc(N)nc3N)nc(N3CCOCC3)n2)CC1` [Compound 81]: the IC50 on PI3 kinase alpha is less than 1000 nM. Besides, the EC50 in assay [1] (A2780 cells) and in assay [2] (ovarian cancer cell line A2780) was less than 1000 nM in each case.

On to `CS(=O)(=O)c1cccc(-c2cc(-c3cnc(N)nc3C(F)(F)F)nc(N3CCOCC3)n2)c1` [Compound 143], for which the IC50 at PI3 kinase alpha was less than 1000 nM. In addition, the EC50 in assay [1] (A2780 cells) and in assay [2] (ovarian cancer cell line A2780) was less than 1000 nM throughout.

`COC(=O)N1CCC[C@H](Oc2cc(-c3cnc(N)nc3N)nc(N3CCOCC3)n2)C1` [Compound 75]: the IC50 at PI3 kinase alpha was less than 1000 nM. Besides, the EC50 in assay [1] (A2780 cells) is less than 1000 nM; in assay [2] (ovarian cancer cell line A2780), less than 10000 nM.

On to `CS(=O)(=O)Nc1ncccc1-c1cc(-c2ccc(N)nc2)nc(N2CCOCC2)n1` [Compound 3], for which the 50% inhibitory concentration (IC50) at PI3 kinase alpha was less than 1000 nM. For the same molecule, the EC50 in assay [1] (A2780 cells) and in assay [2] (ovarian cancer cell line A2780) was less than 1000 nM throughout.

On to `Nc1ccc(-c2cc(Nc3ccnc(Cl)c3)nc(N3CCOCC3)n2)cn1` [Compound 155], for which the IC50 at PI3 kinase alpha was less than 1000 nM. The EC50 in assay [1] (A2780 cells) is less than 1000 nM; in assay [2] (ovarian cancer cell line A2780), less than 10000 nM.

Values taken from patent US8217035B2, “Pyrimidine derivatives used as PI-3-kinase inhibitors” (Novartis AG, priority 2006, dated 2012).
